Data reported in US7572606B1 (Nereus Pharmaceuticals, Inc., priority 2005, dated 2009).
Several values for one entry are separate records, joined by “and”; a condition that tells them apart may be missing. Equal values may be shown once. Read-outs that look alike come from different tables or passages of the source.

How the values were obtained:
[1] = tested on: NF-κB-mediated luciferase activity in HEK293 NF-κB/Luc cells; assay: NF-κB-mediated luciferase reporter gene assay; assay type: cell-based, human; conditions: for EC50: 6 h TNF-α stimulation; for luciferase activity upon TNF-α stimulation: pretreatment of NF-κB/Luc 293 cells
Method: The HEK293 NF-κB/luciferase reporter cell line is a derivative of the human embryonic kidney cell line (ATCC; CRL-1573) and carries a luciferase reporter gene under the regulation of 5×NF-κB binding sites. […] When performing the luciferase assay, the DMEM basal medium was replaced with phenol-red free DMEM basal medium and the G418 was omitted.
For NF-κB-mediated luciferase assays, HEK293 NF-κB/luciferase cells were seeded at 1.5×10^4 cells/well in 90 μl phenol-red free DMEM complete medium into Corning 3917 white opaque-bottom tissue culture plates. For Formulae II-2, II-4, II-5A and II-18, a 400 μM starting dilution was made in 100% DMSO and this dilution was used to generate an 8-point half log dilution series. […] For formula II-20, a 2.5 mM or 8 mM starting dilution was made in 100% DMSO and the final test concentrations ranged from 6.3 μM to 2.0 nM or 20 μM to 6.3 nM respectively. The plates were returned to the incubator for 1 hour. After 1 hr pretreatment, 10 μl of a 50 ng/ml TNF-α solution, prepared in the phenol-red free DMEM medium was added, and the plates were incubated for an additional 6 hours.
At the end of the TNF-α stimulation, 100 μl of Steady Lite HTS luciferase reagent (Packard Bioscience) was added to each well and the plates were left undisturbed for 10 min at room temperature before measuring the luciferase activity. The relative luciferase units (RLU) were measured by using a Fusion microplate fluorometer (Packard Bioscience).
NF-κB inducible luciferase activity was measured at 6 hours.

HL-60/MX2 = assay: Cell growth inhibition, resazurin, 48 h; conditions: for EC50: HL-60/MX2, 48 h drug exposure
Method: (§1) The DNA binding agent Mitoxantrone was included as a control, as HL-60/MX2 cells are reported to be resistant to this chemotherapeutic agent (Harker W. G. et al. 1989).
(§2) Concentrations ranging from 6.32 μM to 2 nM were tested for II-2 and II-4.

HL-60 = assay: Cell growth inhibition, resazurin, 48 h; conditions: for EC50: HL-60, 48 h drug exposure
Method: as §1, §2

[2] = tested on: 20S proteasome chymotrypsin-like activity in RPMI 8226 cells; assay: Chymotrypsin-like activity of 20S proteasomes in treated cells; assay type: cell-based, human; conditions: 1 hr, mean ± SD, n = 3
Method: RPMI 8226 (ATCC, CCL-155), the human multiple myeloma cell line, was cultured in RPMI 1640 medium supplemented with 2 mM L-glutamine, 100 units/ml penicillin, 100 μg/ml streptomycin, 1 mM sodium pyruvate and 10% heat inactivated fetal bovine serum at 37° C., 5% CO2 and 95% humidified air. […] DMSO was used as the vehicle control at a final concentration of 0.1%. Following 1 hr incubation of RMPI 8226 cells with the compounds, the cells were pelleted by centrifugation at 2,000 rpm for 10 sec at room temperature and washed 3× with ice-cold 1×Dulbecco's Phosphate-Buffered Saline (DPBS, Mediatech, Herndon, Va.). DPBS washed cells were lysed on ice for 15 min in lysis buffer (20 mM HEPES, 0.5 mM EDTA, 0.05% Triton X-100, pH 7.3) supplemented with protease inhibitor cocktail (Roche Diagnostics, Indianapolis, Ind.). Cell debris was pelleted by centrifugation at 14,000 rpm for 10 min, 4° C. and supernatants (=cell lysates) were transferred to a new tube. Protein concentration was determined by the BCA protein assay kit (Pierce Biotechnology, Rockford, Ill.). […] The total amount of protein used for each assay was 20 μg. The final concentration of Suc-LLVY-AMC and DMSO was 20 μM and 0.2%, respectively.

NCI-H292 = assay: Cell growth inhibition, resazurin, 48 h; assay type: cell-based, human; conditions: NCI-H292, 48 h drug exposure
[3] = target: T1, trypsin-like activity of rabbit muscle 20S proteasome (Oryctolagus cuniculus, UniProt G1SWK8); assay: In vitro inhibition of 20S proteasome, Boc-LRR-AMC; assay type: biochemical; conditions: for inhibition of the trypsin-like activity of the 20S proteasome: under the conditions tested; for EC50: purified rabbit 20S proteasome, Boc-LRR-AMC
T1 construct: EC50 Trypsin-like; other: purified rabbit 20S proteasome, Boc-LRR-AMC; other: under the conditions tested
T1 sequence (G1SWK8 1-271): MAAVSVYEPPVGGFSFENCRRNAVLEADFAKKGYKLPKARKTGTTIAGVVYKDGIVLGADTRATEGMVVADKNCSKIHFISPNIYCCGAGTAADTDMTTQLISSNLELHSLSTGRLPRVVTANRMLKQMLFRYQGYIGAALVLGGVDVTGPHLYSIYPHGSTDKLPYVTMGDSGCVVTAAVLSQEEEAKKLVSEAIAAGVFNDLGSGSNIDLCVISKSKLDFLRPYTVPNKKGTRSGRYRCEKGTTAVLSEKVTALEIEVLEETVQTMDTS

[4] = Homo sapiens, HEK293, 1 h pretreatment, read-out: EC50

SMILES | EC50 [1, 4] | EC50 (HL-60/MX2; Homo sapiens, HL60/MX2, 48 h) | EC50 (HL-60; Homo sapiens, HL-60, 48 h) | % inhibition of the chymotrypsin-like activity of 20S proteasomes in RPMI 8226 cell lysates ([2]; 1 nM) | % inhibition of the chymotrypsin-like activity of 20S proteasomes in RPMI 8226 cell lysates ([2]; 5 nM) | % inhibition of the chymotrypsin-like activity of 20S proteasomes in RPMI 8226 cell lysates ([2]; 10 nM) | % inhibition of the chymotrypsin-like activity of 20S proteasomes in RPMI 8226 cell lysates ([2]; 50 nM) | % inhibition of the chymotrypsin-like activity of 20S proteasomes in RPMI 8226 cell lysates ([2]; 100 nM) | % inhibition of the chymotrypsin-like activity of 20S proteasomes in RPMI 8226 cell lysates ([2]; 500 nM) | % inhibition of the chymotrypsin-like activity of 20S proteasomes in RPMI 8226 cell lysates ([2]; 1,000 nM) | % inhibition of the chymotrypsin-like activity of 20S proteasomes in RPMI 8226 cell lysates ([2]; 10,000 nM) | inhibition of the trypsin-like activity of the 20S proteasome [3] | luciferase activity upon TNF-α stimulation [1] | further results
CC[C@H]1C(=O)N[C@@]2([C@@H](O)[C@@H]3C=CCCC3)C(=O)O[C@@]12C [Formula II-17] | 960 ± 210 nM | > 20000 nM | > 20000 nM | 6 ± 6% | 10 ± 5% | 6 ± 6% | 26 ± 5% | 30±4% | 39 ± 3% | 46 ± 4% | 65 ± 5% | able to inhibit the trypsin-like activity |  | EC50 (NCI-H292; Homo sapiens, read-out: EC50): > 20000 nM
C[C@@]12OC(=O)[C@]1([C@@H](O)[C@@H]1C=CCCC1)NC(=O)[C@@H]2CCCl [Formula II-16, Salinosporamide A] | ~7 nM | 28 nM | 27 nM | 30 ± 7% | 85±7% | 94 ± 3% | 97 ± 0% | 98 ± 1% |  |  |  | able to inhibit the trypsin-like activity | dose-dependent decrease of luciferase activity | % cytotoxicity (HL-60/MX2; HL-60/MX2): 84% and 89%; EC50 (HL-60/MX2): 25 nM; % cytotoxicity (HL-60; HL-60): 88% and 91%; EC50 (HL-60): 30 nM; EC50 (NCI-H292; Homo sapiens, NCI-H292, 48 h): 97 nM; EC50 (NCI-H292): 66 ± 29 nM
C[C@H]1C(=O)N[C@@]2([C@@H](O)[C@@H]3C=CCCC3)C(=O)O[C@@]12C [Formula II-20] |  |  |  | 3 ± 10% | 31 ± 9% | 37 ± 3% | 64 ± 3% | 66±3% | 71 ± 2% | 73 ± 2% | 87 ± 4% | able to inhibit the trypsin-like activity | dose-dependent decrease of luciferase activity | EC50 ([1]; 1 h pretreatment): 849 ± 225 nM; EC50 [3]: 321 nM; EC50 ([3]; listed as II-20): 321 nM
